# Measured values taken from ChEMBL document CHEMBL1201862, “PubChem BioAssay data set” (2004).
# Active and inactive are the calls of the source.
# Assays:
# [1] = target: Dual specificity protein phosphatase 3 (Homo sapiens, UniProt P51452); test: inhibition constants for human DUSP3 – biochemical, colorimetric, SAR follow-up (AID 2004)
# [2] = Trypanosoma cruzi growth suppression in host cells – NIH3T3 host cells, beta-gal luminescence, confirmation (AID 2044); type: functional, cell-based;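 further: intracellular parasites grown in NIH/3T3 mouse fibroblasts as host cells; luminescent beta-galactosidase reporter signal from transgenic T. cruzi replicating inside host cells; inhibitors lower the luminescence signal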
# [3] = microbe, parasite or virus in culture; type: functional; conditions: Mycobacterium tuberculosis
# [4] = NIH3T3 cell viability loss – ATP luminescence, mouse fibroblasts, counter-screen, dose response (AID 2010); type: functional, cell-based;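 further: cells exposed to compound for about 90 hours before reading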
# Interleukin-8 [5] = target: T1, Interleukin-8 (Homo sapiens, UniProt P10145); test: SAR analysis of Tumor necrosis factor alpha (TNF-alpha) induced IL-8 secretion in MCF-7/NOD1 cells - Set 2. [Related pubchem assays (depositor defined):AID1575, AID2250, AID2260]; type: functional, cell-based
# T1 sequence (P10145 whole entry): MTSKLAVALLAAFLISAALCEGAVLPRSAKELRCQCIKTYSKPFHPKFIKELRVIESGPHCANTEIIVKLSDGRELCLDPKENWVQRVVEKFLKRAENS
# Interleukin-8 [6] = target: T1, Interleukin-8; test: SAR analysis of GM-Tri-DAP induced IL-8 secretion in MCF-7/NOD1 cells - Set 2. [Related pubchem assays (depositor defined):AID1575, AID1578, AID2333]; type: functional, cell-based
# Tumor necrosis factor = Tumor necrosis factor (Homo sapiens, UniProt P01375); test: analog potency on TNFa NF-kB signaling – cell-based, revised, SAR follow-up (AID 2337); type: functional
# [7] = THP-1 cell cytotoxicity, dose response, cytotoxicity control for non-replicating M. tuberculosis project (AID 489025); type: functional
# [8] = target: Nucleotide-binding oligomerization domain-containing protein 1 (Homo sapiens, UniProt Q9Y239); test: blockers of NOD1 pathway activity – revised, SAR follow-up (AID 2333); type: functional
# [9] = HepG2 cell cytotoxicity, dose response, cytotoxicity control for non-replicating M. tuberculosis project (AID 489018); type: functional; conditions: Mycobacterium tuberculosis
# [10] = Vero E6 cell cytotoxicity, dose response, cytotoxicity control for non-replicating M. tuberculosis project, secondary assay (AID 492998); type: functional, VeroE6; conditions: Vero C1008
# [11] = target: Nucleotide-binding oligomerization domain-containing protein 2 (Homo sapiens, UniProt Q9HC29); test: PubChem AID 2334; type: functional
# cells [12] = type: functional
# HEK293 [13] = test: cells; conditions: Homo sapiens
# [14] = target: T2, Neuropeptides B/W receptor type 1 (Homo sapiens, UniProt P48145); test: Fluorescence-based dose response cell-based high throughput screening assay to identify antagonists of the G-protein coupled receptor 7 (GPR7). [Related pubchem assays: 1952 (Screening assay (GPR7 antagonists).), 1880 (Summary AID.)]; type: functional
# T2 sequence (P48145 whole entry): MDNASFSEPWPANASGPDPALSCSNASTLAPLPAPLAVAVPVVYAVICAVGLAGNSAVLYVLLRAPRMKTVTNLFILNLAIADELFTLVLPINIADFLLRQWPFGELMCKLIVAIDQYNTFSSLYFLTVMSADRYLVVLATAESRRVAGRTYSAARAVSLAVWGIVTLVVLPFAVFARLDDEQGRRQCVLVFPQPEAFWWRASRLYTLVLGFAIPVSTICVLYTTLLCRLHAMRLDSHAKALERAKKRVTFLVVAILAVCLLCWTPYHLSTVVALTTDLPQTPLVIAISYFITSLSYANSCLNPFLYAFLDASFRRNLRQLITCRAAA
# [15] = target: Melanin-concentrating hormone receptor 1 (Homo sapiens, UniProt Q99705); test: Fluorescence-based counterscreen for antagonists of the G-protein coupled receptor 7 (GPR7): cell-based high throughput dose response assay to identify antagonists of the melanin-concentrating hormone receptor 1 (MCHR1).; type: functional
# Bcl-2-like protein 10 = target: T3, Bcl-2-like protein 10 (Homo sapiens, UniProt Q9HD36); test: Bcl-B/TR3 peptide binding disruption – biochemical, fluorescence polarization, FITC-TR3 peptide, selectivity assay for Bfl-1 inhibitor project, primary screen (AID 748);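 further: fluorescence polarization from a fluorescein-labelled TR3 peptide binding purified Bcl-B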
# T3 sequence (Q9HD36 whole entry): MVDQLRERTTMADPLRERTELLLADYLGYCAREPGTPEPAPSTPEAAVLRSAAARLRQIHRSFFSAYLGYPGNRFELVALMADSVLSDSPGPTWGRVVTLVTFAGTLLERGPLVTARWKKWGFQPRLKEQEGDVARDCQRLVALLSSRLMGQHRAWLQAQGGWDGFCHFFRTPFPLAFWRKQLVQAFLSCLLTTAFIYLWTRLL
# HEK293 [16] = test: PMA/Ionomycin induced NF-kB luciferase assay in 293- NF-kB-Luc stable cells. [Related pubchem assays: 1299, 1270, 1295, 1375, 1287, 1281, 1293, 1291, 1289, 1280, 465, 1364, 1282, 1372, 1365, 1370, 1367, 1366, 1269, 1373, 1292, 1290, 1302, 1371, 1283, 1271, 1294, 1374, 1368, 1369 ]; type: functional, cell-based; conditions: Homo sapiens
# [17] = target: T4, Luciferin 4-monooxygenase (Photinus pyralis, UniProt P08659); test: In vitro luciferase assay using purified luciferase. [Related pubchem assays: 1299, 1270, 1295, 1375, 1287, 1281, 1293, 1291, 1289, 1280, 465, 1364, 1282, 1372, 1365, 1370, 1367, 1366, 1266, 1373, 1292, 1290, 1302, 1371, 1283, 1271, 1294, 1374, 1368, 1369 ]
# HEK293 [18] = test: Cytotoxicity assay in HEK293 cells. [Related pubchem assays (depositor defined):AID1266, AID1269, AID1270, AID1271, AID1280, AID1281, AID1282, AID1283, AID1287, AID1289, AID1290, AID1291, AID1292, AID1293, AID1294, AID1295, AID1299, AID1302, AID1364, AID1365, AID1366, AID1367, AID1369, AID1370, AID1371, AID1372, AID1373, AID1374, AID1375, AID1384 …; type: functional, cell-based; conditions: Homo sapiens
# HEK293 [19] = test: TNF Induced NF-kB Luciferase in 293-NF-kB-Luc Stable Cells. [Related pubchem assays: 1266, 1299, 1269, 1373, 1292, 1290, 1302, 1371, 1283, 1270, 1295, 1271, 1375, 1294, 1374, 1281, 1293, 1291, 1289, 1280, 465, 1368, 1364, 1282, 1372, 1365, 1369, 1370, 1367, 1366 ]; type: functional, cell-based; conditions: Homo sapiens
# Beta-galactosidase = Beta-galactosidase (Escherichia coli, UniProt Q8VNN2); test: detection-enzyme interference by beta-gal modulators – biochemical, E. coli enzyme, set 3, artefact control for CCR6 antagonist project, dose response (AID 504712); type: functional
# Hexokinase HKDC1 = Hexokinase HKDC1 (Homo sapiens, UniProt Q2TB90); test: inhibition of HKDC1 glucose phosphorylation – biochemical, W721R variant, dose response (AID 504729); type: functional
# Genome polyprotein = Genome polyprotein (dengue virus type 2, UniProt P29990); test: flavivirus cap methylation enzyme inhibition – biochemical, confirmation dose response, primary screen (AID 588689); type: functional
# [20] = Fluorescence-based cell-based high throughput dose response assay for inhibitors of the interaction of nucleotide-binding oligomerization domain containing 2 (NOD2) and the receptor-interacting serine-threonine kinase 2 (RIPK2).; type: functional; conditions: Homo sapiens
# Beta Lactamase = Beta Lactamase (Pseudomonas aeruginosa, UniProt Q932Y6); test: BLA reporter interference, concentration series – BLA reporter cells, FRET fluorescence, artefact control for NOD2-RIPK2 interaction inhibitor project, dose response (AID 651552); type: functional, cell-based
# [21] = viability loss in THP-1 monocytes – THP-1 cells, cytotoxicity control for Vif-APOBEC3G degradation inhibitor project, dose response (AID 1117359); type: functional; conditions: THP-1
# [22] = target: Acylamino-acid-releasing enzyme (Homo sapiens, UniProt P13798); test: endogenous PME-1 and serine hydrolase inhibition – cell lysate, mouse brain cytosol, FP-rhodamine, gel ABPP, selectivity assay for PME-1 inhibitor project, dose response, panel member APEH Assay Panel member description: Inhibition of N-acylaminoacyl-peptide hydrolase (APEH) (anti-target) (AID 2366)
# [23] = target: T5, Voltage-gated N-type calcium channel alpha-1B subunit/Amyloid beta A4 precursor protein-binding family A member 1 (Homo sapiens, UniProt Q00975+Q02410); test: disruptors of Mint-PDZ/N-type channel peptide interaction – biochemical, HTRF, set 2, SAR follow-up (AID 434980); type: functional
# [24] = target: T5, Voltage-gated N-type calcium channel alpha-1B subunit/Amyloid beta A4 precursor protein-binding family A member 1; test: disruptors of Mint-PDZ/N-type channel peptide interaction – biochemical, HTRF, SAR follow-up (AID 2489); type: functional
# [25] = target: T2, Neuropeptides B/W receptor type 1; test: human NPBW1 receptor blockade, IC50 – cell-based, fluorescence, dose response, late-stage follow-up (AID 463251); type: functional
# [26] = target: T4, Luciferin 4-monooxygenase; test: inhibition of purified Photinus pyralis luciferase – biochemical, luminescence, dose response (AID 1891)
# [27] = Luminescence Cell-Based Dose Confirmation HTS to Identify Inhibitors of Platelet Dense Granule Release. [Related pubchem assays: 1663 (Primary HTS), 1678 (Summary of Project)]; type: functional
# [28] = target: Induced myeloid leukemia cell differentiation protein Mcl-1 (Homo sapiens, UniProt Q07820); type: functional
# [29] = target: NACHT, LRR and PYD domains-containing protein 3 (Homo sapiens, UniProt Q96P20); test: NALP3 inhibitors in yeast, dose response, luminescent (AID 488799); type: functional
# [30] = target: Neurotensin receptor type 1 (Homo sapiens, UniProt P30989); type: functional;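 further: Image-based confirmatory dose-response assay measuring agonist activity at NTR1; NTR1-expressing U2OS osteosarcoma cells imaged for beta-arrestin GFP spot formation; agonist potency where compounds increase beta-arrestin recruitment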
# [31] = target: T6, Oxysterols receptor LXR-beta (Homo sapiens, UniProt P55055); type: functional, cell-based;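 further: Cell-based luminescence dose-response assay of agonist activity at LXR, run as a confirmatory counterscreen to a daf-12 agonist screen; HEK293 cells with Gal4-LXR fusion and GAL4-driven luciferase reporter; agonist potency from rising luciferase signal of a Gal4-LXR reporter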
# T6 sequence (P55055 whole entry): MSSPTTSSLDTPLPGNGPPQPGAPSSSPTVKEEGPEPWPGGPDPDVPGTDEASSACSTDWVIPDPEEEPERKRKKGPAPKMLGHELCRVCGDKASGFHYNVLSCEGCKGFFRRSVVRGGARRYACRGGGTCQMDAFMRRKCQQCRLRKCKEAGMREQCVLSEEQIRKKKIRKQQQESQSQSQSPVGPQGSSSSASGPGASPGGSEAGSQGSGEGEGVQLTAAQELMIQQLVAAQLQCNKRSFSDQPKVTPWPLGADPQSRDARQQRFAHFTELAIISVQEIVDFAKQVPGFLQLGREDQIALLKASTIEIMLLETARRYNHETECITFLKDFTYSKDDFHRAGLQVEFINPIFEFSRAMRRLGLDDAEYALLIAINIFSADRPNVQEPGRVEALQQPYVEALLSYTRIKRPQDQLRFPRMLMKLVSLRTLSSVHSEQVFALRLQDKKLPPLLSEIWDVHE
# cells [32] = test: cells
# T5 sequence (Q00975 whole entry): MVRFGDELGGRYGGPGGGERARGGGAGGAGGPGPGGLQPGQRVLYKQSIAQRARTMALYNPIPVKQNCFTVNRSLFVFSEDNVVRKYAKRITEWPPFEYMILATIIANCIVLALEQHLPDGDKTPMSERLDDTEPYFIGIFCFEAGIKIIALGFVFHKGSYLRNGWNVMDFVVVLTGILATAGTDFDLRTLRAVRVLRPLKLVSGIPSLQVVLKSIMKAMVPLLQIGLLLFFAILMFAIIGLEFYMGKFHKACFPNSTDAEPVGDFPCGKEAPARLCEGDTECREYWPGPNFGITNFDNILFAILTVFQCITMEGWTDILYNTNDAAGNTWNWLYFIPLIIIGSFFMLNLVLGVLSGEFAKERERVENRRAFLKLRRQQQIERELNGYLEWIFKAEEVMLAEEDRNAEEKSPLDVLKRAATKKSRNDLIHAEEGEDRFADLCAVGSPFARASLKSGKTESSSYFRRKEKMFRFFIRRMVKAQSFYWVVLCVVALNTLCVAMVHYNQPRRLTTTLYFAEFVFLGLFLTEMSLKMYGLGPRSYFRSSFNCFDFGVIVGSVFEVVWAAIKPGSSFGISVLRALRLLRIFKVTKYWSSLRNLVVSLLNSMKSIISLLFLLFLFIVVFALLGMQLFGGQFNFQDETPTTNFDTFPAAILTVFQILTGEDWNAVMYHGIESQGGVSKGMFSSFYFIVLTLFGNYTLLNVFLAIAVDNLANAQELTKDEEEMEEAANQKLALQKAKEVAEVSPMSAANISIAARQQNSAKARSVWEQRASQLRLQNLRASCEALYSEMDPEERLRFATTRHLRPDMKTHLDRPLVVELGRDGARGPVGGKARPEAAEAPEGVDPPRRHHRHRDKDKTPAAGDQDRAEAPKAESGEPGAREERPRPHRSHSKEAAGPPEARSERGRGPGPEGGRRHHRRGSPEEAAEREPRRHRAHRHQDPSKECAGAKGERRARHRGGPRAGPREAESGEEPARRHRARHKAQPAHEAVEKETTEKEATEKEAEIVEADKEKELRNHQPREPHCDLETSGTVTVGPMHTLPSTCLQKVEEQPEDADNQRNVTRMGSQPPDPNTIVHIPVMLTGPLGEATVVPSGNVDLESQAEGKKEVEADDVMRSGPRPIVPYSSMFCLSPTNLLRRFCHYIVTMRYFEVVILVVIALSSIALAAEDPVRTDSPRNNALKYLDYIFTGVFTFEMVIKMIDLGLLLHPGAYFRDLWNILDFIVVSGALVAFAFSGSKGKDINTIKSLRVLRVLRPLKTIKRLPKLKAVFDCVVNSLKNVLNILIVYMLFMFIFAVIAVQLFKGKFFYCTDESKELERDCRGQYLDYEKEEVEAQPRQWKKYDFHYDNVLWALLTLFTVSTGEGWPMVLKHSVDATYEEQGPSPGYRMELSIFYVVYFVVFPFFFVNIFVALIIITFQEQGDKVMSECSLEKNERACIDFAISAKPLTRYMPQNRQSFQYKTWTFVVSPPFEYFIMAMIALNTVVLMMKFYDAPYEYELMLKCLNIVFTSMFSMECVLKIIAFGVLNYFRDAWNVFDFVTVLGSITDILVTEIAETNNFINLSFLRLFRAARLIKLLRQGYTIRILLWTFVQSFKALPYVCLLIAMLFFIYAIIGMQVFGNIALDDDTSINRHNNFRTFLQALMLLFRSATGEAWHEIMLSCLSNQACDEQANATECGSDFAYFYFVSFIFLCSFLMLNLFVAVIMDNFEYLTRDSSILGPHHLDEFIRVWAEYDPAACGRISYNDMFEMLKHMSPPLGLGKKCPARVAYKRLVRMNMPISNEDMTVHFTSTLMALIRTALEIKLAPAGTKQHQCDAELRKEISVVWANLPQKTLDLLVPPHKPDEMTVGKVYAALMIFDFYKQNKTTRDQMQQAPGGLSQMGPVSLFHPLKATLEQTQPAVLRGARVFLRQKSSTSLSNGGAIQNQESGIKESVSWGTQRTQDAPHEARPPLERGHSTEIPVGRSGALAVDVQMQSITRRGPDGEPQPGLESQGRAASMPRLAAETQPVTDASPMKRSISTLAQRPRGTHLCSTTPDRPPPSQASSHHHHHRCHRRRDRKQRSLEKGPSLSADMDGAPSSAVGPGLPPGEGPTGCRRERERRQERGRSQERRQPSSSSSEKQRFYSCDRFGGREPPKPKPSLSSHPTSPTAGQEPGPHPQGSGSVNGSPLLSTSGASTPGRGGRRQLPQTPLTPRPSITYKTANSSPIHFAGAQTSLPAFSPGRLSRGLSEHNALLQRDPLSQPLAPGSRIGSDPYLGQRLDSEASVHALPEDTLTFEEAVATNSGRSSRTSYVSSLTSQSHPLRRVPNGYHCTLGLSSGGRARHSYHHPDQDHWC
# T5 sequence (Q02410 whole entry): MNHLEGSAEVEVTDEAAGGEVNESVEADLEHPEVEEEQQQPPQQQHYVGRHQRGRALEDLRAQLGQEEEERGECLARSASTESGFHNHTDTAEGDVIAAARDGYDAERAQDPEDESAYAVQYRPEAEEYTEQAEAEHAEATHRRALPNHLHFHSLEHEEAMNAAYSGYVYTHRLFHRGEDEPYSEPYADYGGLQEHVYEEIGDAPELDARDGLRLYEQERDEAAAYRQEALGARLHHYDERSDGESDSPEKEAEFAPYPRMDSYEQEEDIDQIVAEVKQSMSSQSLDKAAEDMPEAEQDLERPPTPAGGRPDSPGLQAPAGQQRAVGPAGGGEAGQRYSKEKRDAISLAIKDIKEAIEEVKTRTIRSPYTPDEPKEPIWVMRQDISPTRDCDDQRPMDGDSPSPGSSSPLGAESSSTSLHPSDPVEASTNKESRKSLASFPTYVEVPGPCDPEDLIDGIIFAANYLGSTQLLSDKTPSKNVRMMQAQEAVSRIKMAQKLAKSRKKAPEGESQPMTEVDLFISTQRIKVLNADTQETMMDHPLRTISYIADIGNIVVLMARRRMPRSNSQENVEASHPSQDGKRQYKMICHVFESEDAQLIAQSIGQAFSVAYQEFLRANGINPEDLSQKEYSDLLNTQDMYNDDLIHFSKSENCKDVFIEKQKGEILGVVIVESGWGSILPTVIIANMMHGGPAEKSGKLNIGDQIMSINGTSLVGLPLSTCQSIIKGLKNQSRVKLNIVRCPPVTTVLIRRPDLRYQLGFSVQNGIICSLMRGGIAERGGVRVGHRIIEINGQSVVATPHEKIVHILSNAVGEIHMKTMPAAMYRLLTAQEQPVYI
# T4 sequence (P08659 whole entry): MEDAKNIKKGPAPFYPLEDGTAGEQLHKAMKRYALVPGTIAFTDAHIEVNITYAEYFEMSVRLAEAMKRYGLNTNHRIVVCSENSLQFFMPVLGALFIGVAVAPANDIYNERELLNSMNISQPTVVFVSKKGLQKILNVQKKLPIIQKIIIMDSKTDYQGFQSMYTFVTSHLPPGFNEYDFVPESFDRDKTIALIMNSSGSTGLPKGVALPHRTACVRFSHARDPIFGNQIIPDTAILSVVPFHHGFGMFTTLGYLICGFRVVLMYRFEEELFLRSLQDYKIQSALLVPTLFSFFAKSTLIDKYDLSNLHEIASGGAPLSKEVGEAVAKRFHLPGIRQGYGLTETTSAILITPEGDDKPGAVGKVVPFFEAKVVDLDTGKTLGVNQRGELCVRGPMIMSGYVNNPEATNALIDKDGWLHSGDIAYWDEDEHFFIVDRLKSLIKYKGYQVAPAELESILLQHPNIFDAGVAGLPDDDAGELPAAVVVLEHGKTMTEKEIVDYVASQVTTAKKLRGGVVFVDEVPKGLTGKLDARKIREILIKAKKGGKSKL
# Sequence of Dual specificity protein phosphatase 3 (P51452 whole entry): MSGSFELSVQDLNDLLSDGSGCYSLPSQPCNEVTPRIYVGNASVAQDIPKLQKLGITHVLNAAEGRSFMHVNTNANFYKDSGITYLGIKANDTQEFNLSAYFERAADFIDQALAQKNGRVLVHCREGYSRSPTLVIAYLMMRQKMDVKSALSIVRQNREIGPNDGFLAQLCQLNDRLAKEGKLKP
# Sequence of Tumor necrosis factor (P01375 whole entry): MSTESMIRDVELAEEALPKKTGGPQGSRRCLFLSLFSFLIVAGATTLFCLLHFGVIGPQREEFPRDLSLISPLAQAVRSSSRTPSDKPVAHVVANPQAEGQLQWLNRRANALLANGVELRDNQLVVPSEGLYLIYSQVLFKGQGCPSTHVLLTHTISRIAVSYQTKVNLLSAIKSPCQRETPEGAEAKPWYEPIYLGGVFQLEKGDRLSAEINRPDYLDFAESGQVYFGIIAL
# Sequence of Genome polyprotein (P29990 2492-3391 limits assumed): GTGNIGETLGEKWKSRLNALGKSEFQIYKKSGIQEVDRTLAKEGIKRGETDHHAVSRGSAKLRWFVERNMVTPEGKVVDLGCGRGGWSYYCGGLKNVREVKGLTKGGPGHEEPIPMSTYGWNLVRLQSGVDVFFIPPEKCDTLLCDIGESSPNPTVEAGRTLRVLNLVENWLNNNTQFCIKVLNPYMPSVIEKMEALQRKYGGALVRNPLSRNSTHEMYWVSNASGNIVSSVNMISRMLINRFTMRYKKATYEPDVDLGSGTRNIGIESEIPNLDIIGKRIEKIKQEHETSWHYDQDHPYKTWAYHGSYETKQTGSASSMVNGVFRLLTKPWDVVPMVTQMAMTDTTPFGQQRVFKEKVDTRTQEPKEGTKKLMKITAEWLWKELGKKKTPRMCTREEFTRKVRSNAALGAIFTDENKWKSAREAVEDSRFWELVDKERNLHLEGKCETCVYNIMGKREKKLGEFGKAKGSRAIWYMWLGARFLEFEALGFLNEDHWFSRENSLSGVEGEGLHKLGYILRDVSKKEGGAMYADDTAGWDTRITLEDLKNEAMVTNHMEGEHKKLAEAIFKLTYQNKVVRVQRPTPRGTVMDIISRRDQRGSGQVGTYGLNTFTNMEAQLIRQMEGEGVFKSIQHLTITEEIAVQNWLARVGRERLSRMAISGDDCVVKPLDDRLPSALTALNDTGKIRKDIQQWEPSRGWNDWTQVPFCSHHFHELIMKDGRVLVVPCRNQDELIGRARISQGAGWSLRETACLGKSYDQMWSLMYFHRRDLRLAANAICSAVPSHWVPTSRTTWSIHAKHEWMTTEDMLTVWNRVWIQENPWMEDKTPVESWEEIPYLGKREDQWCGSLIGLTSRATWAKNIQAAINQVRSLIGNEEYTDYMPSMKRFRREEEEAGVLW
structure (smiles),measurement,setting,value
Cc1cc(Br)c(-c2ccc(/C=C3/NC(=S)NC3=O)o2)cc1C,Ki,[1],3.19 µM (active)
CCC(=O)Nc1nc2ccccc2n1Cc1ccc(Cl)cc1,EC50,[2],1.1 µM (active)
same,CC50,[3],33.9 µM (active)
same,EC50,[4],8.28 µM (active)
same,IC50,Interleukin-8 [5],> 25 µM (inactive)
same,IC50,Interleukin-8 [6],> 25 µM (inactive)
same,IC50,Tumor necrosis factor,> 20 µM (inactive)
same,CC50,[7],> 40 µM (active)
same,IC50,[8],12.3 µM (active)
same,CC50,[9],> 20 µM (active)
same,CC50,[10],11 µM (active)
same,IC50,[11],15.8 µM (active)
same,IC50,cells [12],0.29 µM (active)
same,IC50,HEK293 [13],> 20 µM (inactive)
CN(C)C1=NC[C@H](Cc2ccccc2)N1CC1CCC(C(C)(C)C)CC1 (stereo partly drawn),IC50,[14],7.86 µM (active)
same,IC50,[15],10.6 µM (not active)
CC(=O)C1=C(O)C(=O)N(Cc2ccccc2)C1c1ccco1 (stereo not drawn),IC50,Bcl-2-like protein 10,> 100 µM (inactive)
Cc1oc2cc3c(C(=O)OCCN(C)C)c(C)oc3cc2c1C(=O)OCCN(C)C,EC50,HEK293 [16],0.781 µM (active)
same,EC50,[17],> 8 µM (not active)
same,EC50,HEK293 [18],13.9 µM (inactive)
same,EC50,HEK293 [19],0.11 µM (active)
Cc1[nH]c2ccccc2c1C1=CC(=O)C=CC1=O,IC50,Beta-galactosidase,> 66.6 µM (inactive)
same,IC50,Hexokinase HKDC1,3.4 µM (active)
same,IC50,Genome polyprotein,17.7 µM (active)
same,IC50,[20],3.46 µM (active)
same,IC50,Beta Lactamase,19.9 µM (inactive)
same,CC50,[21],> 40 µM (active)
CC(C)(C)S(=O)(=O)/C(C#N)=C/c1cccn1S(=O)(=O)c1ccccc1,IC50,[22],> 50 µM (inactive)
COc1ccc(CNC(=O)COC(=O)c2cccc3ccccc23)cc1,IC50,[23],26.4 µM (active)
same,IC50,[24],> 56.8 µM (inactive)
CCOc1ccc(CCOc2c(Cl)cnn(-c3ccccc3)c2=O)cc1OCC,IC50,[25],> 20 µM (inactive)
Oc1c(/C=N/c2ccccn2)sc2ccccc12,EC50,[26],1.8 µM (active)
same,EC50,[27],11.5 µM (active)
same,IC50,[28],1.64 µM (active)
same,IC50,[29],10.2 µM (active)
O=C(N/N=C/c1cn(-c2ccccc2)nc1-c1cc2ccccc2o1)c1cccnc1,EC50,[30],> 40 µM (inactive)
same,EC50,[31],> 67.5 µM (inactive)
same,EC50,cells [32],> 67.5 µM (inactive)
